The term Kd denotes a measure of binding affinity in units of concentration. Lower therefore signals a tighter complex.

The assay deals with BoGT6a (Bacteroides ovatus, UniProt A0ABU3IMV7). The assay is described as follows: ITC, […]°C, HEPES pH […], no metal. The assay is classed as binding.

With `CC(=O)N[C@H]1[C@@H](OP(=O)(O)OP(=O)(O)OC[C@H]2O[C@@H](n3ccc(=O)[nH]c3=O)[C@H](O)[C@@H]2O)O[C@H](CO)[C@H](O)[C@@H]1O` [UDP-GalNAc], binding was put at a Kd of 59 µM.

The values above are taken from PMC3516806 (Scientific Reports, 2012).
